According to patent US12146886B2, “Methods for detecting and treating endometriosis” (The Feinstein Institutes for Medical Research, priority 2018, dated 2024):

Tests used:
ME-SFCs [1] = assay: Long-term study: transient cytokine exposure of ME-SFCs, decidualization 25 days after final treatment (IGFBP-1 ELISA); assay type: cell-based, human; settings: for SFC decidualization capacity after transient exposure: FIG. 4A-4B
Procedure: (§1) In vitro exposure of ME-SFCs to inflammatory cytokines (e.g. TNFα) reduces decidualization capacity. […] After 24 hrs, culture supernatants were collected and IGFBP-1 protein levels were measured by ELISA. […] Twenty four hours later, the culture supernatants were collected and IGFBP-1 protein levels were measured by ELISA.

ME-SFCs [2] = assay: Acute exposure of ME-SFCs to inflammatory cytokines, then cAMP decidualization (IGFBP-1 ELISA); assay type: cell-based, human; settings: TNFα 1 pg/ml-10 ng/ml; SFCs from a normal subject; 24 hours; cAMP 0.5 mM
Procedure: as §1

In the case of IL-1β: inflammatory cytokine, the “SFC decidualization capacity after transient exposure” value (ME-SFCs [1]) is reported as “persistent defects”.
TNFα was tested, and the “decidualization capacity of SFCs” value (ME-SFCs [2]) was “dramatically reduces decidualization capacity”, the “persistence of decidualization defects (reduced IGFBP1 production) after removal from culture” value (ME-SFCs [1]; TNFα 0.1-1.0 ng/ml on days 0 and 5, decidualization with cAMP alone or cAMP and medroxyprogesterone) was “at least 25 days” and the “SFC decidualization capacity after transient exposure” value (ME-SFCs [1]) was “persistent defects”. The cell viability (SFCs) was “not affected”.
